The values that follow come from patent US20220244254A1, “Screening Methods and Assays for Use with Transmembrane Proteins, in Particular with GPCRs” (CONFO THERAPEUTICS N.V., priority 2019, published 2022).

The structures appear in SMILES notation.

For this assay, the target named is T1, M2 receptor (Homo sapiens, UniProt P08172, DEL233-374).
T1 construct: FLAG (N); expressed in transfected cells
T1 sequence (P08172 with tags, fused parts or gaps DEL233-374): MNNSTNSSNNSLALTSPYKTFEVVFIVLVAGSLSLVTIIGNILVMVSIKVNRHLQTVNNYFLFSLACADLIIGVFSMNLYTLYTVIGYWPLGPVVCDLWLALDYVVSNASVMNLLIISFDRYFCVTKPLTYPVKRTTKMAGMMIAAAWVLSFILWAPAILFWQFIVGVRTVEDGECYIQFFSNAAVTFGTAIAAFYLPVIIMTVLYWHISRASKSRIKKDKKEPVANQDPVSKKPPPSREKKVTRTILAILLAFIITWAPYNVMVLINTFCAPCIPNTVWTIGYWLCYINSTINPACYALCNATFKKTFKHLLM
Put plainly: Assay of the invention: M2-LgBiT fusion and Nb9-8-SmBiT fusion. Type of assay: cell-based.

On to `Cc1c(Cl)c(OCC(=O)N2CCN(C)CC2)nc2sc(C(=O)NC3CC3)c(N)c12` [LY2119620], for which the “agonistic effect on the M2 receptor” value (LY2119620 itself, data not shown) is “some agonistic effect”. Also, under “iperoxo DRC with and without LY2119620”, the “effect on the dose-response curve of iperoxo” value was “effect as a positive allosteric modulator”.
